# Assay results reported in patent publication US20260217687A1 (NeoPhore Limited, priority 2023, published 2026).
# Molecular target: T1, recombinant N-terminal MLH1 (residues 15-340) (Homo sapiens, UniProt P40692)
# T1 construct: recombinant N-terminal MLH1 (residues 15-340)
# T1 sequence (P40692 15-340): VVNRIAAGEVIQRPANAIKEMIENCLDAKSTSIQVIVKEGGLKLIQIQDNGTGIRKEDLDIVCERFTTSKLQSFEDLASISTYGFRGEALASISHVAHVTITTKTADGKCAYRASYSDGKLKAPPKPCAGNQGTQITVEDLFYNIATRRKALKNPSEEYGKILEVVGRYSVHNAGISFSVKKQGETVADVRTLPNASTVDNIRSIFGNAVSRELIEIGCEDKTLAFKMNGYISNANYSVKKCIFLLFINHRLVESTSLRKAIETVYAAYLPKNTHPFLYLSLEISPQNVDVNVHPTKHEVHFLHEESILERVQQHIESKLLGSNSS
# Assay: Fluorescence Polarisation Assay for MLH1
# Assay type: binding
# Conditions: 100 nM N-terminal MLH1, 5 nM probe compound
# Outline: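 Fluorescence polarisation displacement: 100 nM MLH1 (15-340) preincubated 30 min at room temperature with compound, then 5 nM rhodamine-labelled probe added and read immediately. Buffer 25 mM HEPES pH 7.5, 250 mM NaCl, 10 mM MgCl2, 0.01% Triton X-100, 5 mM DTT; normalised to no-inhibitor and no-enzyme controls.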
row,IC50 [µM],SMILES
1,0.1 to 1,"CN(C)CCOc1cc2c(c(N[C@@H]3CCOC3)c1)CN(C(=O)c1c(O)cc(C#N)cc1OCc1ccccc1)C2 [Example 18, (R)-3-(Benzyloxy)-4-(6-(2-(dimethylamino)ethoxy)-4-((tetrahydrofuran-3-yl)amino)isoindoline-2-carbonyl)-5-hydroxybenzonitrile]"
2,1 to 10,"COCCNc1cccc2c1CN(C(=O)c1c(O)cc(C(F)F)cc1OCc1ccccc1)CC2 [Example 4.37, (2-(Benzyloxy)-4-(difluoromethyl)-6-hydroxyphenyl)(8-((2-methoxyethyl)amino)-3,4-dihydroisoquinolin-2(1H)-yl)methanone]"
3,0.1 to 1,"Cn1cncc1-c1cc2c(c(N[C@H]3CCOC3)c1)CN(C(=O)c1c(O)cc(C(F)F)cc1OCc1ccccc1)C2 [Example 4.24, (S)-(2-(Benzyloxy)-4-(difluoromethyl)-6-hydroxyphenyl)(6-(1-methyl-1H-imidazol-5-yl)-4-((tetrahydrofuran-3-yl)amino)isoindolin-2-yl)methanone]"
4,1 to 10,"CN(C)CCOc1cccc2c1CCN2C(=O)c1c(O)cc(C#N)cc1OCc1ccccc1 [Example 27.12, 3-(Benzyloxy)-4-(4-(2-(dimethylamino)ethoxy)indoline-1-carbonyl)-5-hydroxybenzonitrile]"
5,0.1 to 1,O=C(c1c(O)cc(C(F)F)cc1OCc1ccccc1)N1Cc2ccc(Oc3ccncn3)cc2C1 [Example 4.61]
6,1 to 10,"O=C(c1c(O)cc(C(F)F)cc1OCc1ccccc1)N1CCc2ncccc21 [Example 27.22, (2-(Benzyloxy)-4-(difluoromethyl)-6-hydroxyphenyl)(2,3-dihydro-1H-pyrrolo[3,2-b]pyridin-1-yl)methanone]"
7,1 to 10,"CN(C)Cc1ccc2c(c1)CN(C(=O)c1c(O)cc(C#N)cc1OCc1ccccc1)C2 [Example 10.15, 3-(Benzyloxy)-4-(5-((dimethylamino)methyl)isoindoline-2-carbonyl)-5-hydroxybenzonitrile]"
8,0.1 to 1,"CN(C)CCOc1cc2c(c(C(F)F)c1)CN(C(=O)c1c(O)cc(C(F)F)cc1OCc1ccccc1)CC2 [Example 4.74, (2-(Benzyloxy)-4-(difluoromethyl)-6-hydroxyphenyl)(8-(difluoromethyl)-6-(2-(dimethylamino)ethoxy)-3,4-dihydroisoquinolin-2(1H)-yl)methanone]"
9,1 to 10,"N#Cc1cc(O)c(C(=O)N2Cc3cccc(NCC4CCOC4)c3C2)c(OCc2ccccc2)c1 (stereo not drawn) [Example 10.10, 3-(Benzyloxy)-5-hydroxy-4-(4-(((tetrahydrofuran-3-yl)methyl)amino)isoindoline-2-carbonyl)benzonitrile]"
10,< 0.1,CN(C)CCOc1cc2c(c(N[C@H]3CCOC3)c1)CN(C(=O)c1c(O)cc(C(F)F)cc1OCc1ccccc1)C2 [Example 4.76]
11,0.1 to 1,"CN1CCC(Oc2ccc3c(c2)CN(C(=O)c2c(O)cc(C(F)F)cc2OCc2ccccc2)CC3)CC1 [Example 4.44, (2-(Benzyloxy)-4-(difluoromethyl)-6-hydroxyphenyl)(7-((1-methylpiperidin-4-yl)oxy)-3,4-dihydroisoquinolin-2(1H)-yl)methanone]"
12,0.1 to 1,"O=C(c1c(O)cc(C(F)F)cc1OCc1ccccc1)N1Cc2cccc(NC3COC3)c2C1 [Example 4.4, (2-(Benzyloxy)-4-(difluoromethyl)-6-hydroxyphenyl)(4-(oxetan-3-ylamino)isoindolin-2-yl)methanone]"
13,< 0.1,"CN(C)CCOc1cc2c(c(N[C@@H]3CCOC3)c1)CN(C(=O)c1c(O)cc(Cl)cc1OCc1ccccc1)CC2 [Example 21, (R)-(2-(Benzyloxy)-4-chloro-6-hydroxyphenyl)(6-(2-(dimethylamino)ethoxy)-8-((tetrahydrofuran-3-yl)amino)-3,4-dihydroisoquinolin-2(1H)-yl)methanone]"
14,0.1 to 1,"CN1CC[C@H](Nc2cccc3c2CN(C(=O)c2c(O)cc(C(F)F)cc2OCc2ccccc2)CC3)C1=O [Example 4.13, (S)-3-((2-(2-(benzyloxy)-4-(difluoromethyl)-6-hydroxybenzoyl)-1,2,3,4-tetrahydroisoquinolin-8-yl)amino)-1-methylpyrrolidin-2-one]"
15,0.1 to 1,"N#Cc1cc(O)c(C(=O)N2CCc3cccc(N[C@H]4CCOC4)c3C2)c(OCc2ccccc2)c1 [Example 17, (S)-3-(Benzyloxy)-5-hydroxy-4-(8-((tetrahydrofuran-3-yl)amino)-1,2,3,4-tetrahydroisoquinoline-2-carbonyl)benzonitrile]"
16,0.1 to 1,"CN1CC(Oc2ccc3c(c2)CN(C(=O)c2c(O)cc(C#N)cc2OCc2ccccc2)C3)C1 [Example 10.32, 3-(Benzyloxy)-5-hydroxy-4-(5-((1-methylazetidin-3-yl)oxy)isoindoline-2-carbonyl)benzonitrile]"
17,1 to 10,"N#Cc1cc(O)c(C(=O)N2Cc3cccc(N[C@H]4CCOC4)c3C2)c(OCC2CC2)c1 [Example 12.2, (S)-3-(Cyclopropylmethoxy)-5-hydroxy-4-(4-((tetrahydrofuran-3-yl)amino)isoindoline-2-carbonyl)benzonitrile]"
18,0.1 to 1,"CN(C)CCOc1ccc2c(c1)CN(C(=O)c1c(O)cc(C(F)F)cc1OCc1ccccc1)C2 [Example 4.31, (2-(Benzyloxy)-4-(difluoromethyl)-6-hydroxyphenyl)(5-(2-(dimethylamino)ethoxy)isoindolin-2-yl)methanone]"
19,0.1 to 1,"CN1CCN(Cc2ccc3c(c2)CN(C(=O)c2c(O)cc(C#N)cc2OCc2ccccc2)C3)CC1 [Example 10.34, 3-(Benzyloxy)-5-hydroxy-4-(5-((4-methylpiperazin-1-yl)methyl)isoindoline-2-carbonyl)benzonitrile]"
20,0.1 to 1,"COc1cc(O)c(C(=O)N2Cc3cccc(N[C@@H]4CCOC4)c3C2)c(OCc2ccccc2)c1 [Example 2, (R)-(2-(Benzyloxy)-6-hydroxy-4-methoxyphenyl)(4-((tetrahydrofuran-3-yl)amino)isoindolin-2-yl)methanone]"
21,0.1 to 1,"CN1C[C@H](Nc2cccc3c2CN(C(=O)c2c(O)cc(C#N)cc2OCc2ccccc2)C3)CC1=O (single isomer, unassigned) [Example 10.8, (R)-3-(Benzyloxy)-5-hydroxy-4-(4-((1-methyl-5-oxopyrrolidin-3-yl)amino)isoindoline-2-carbonyl)benzonitrile or (S)-3-(benzyloxy)-5-hydroxy-4-(4-((1-methyl-5-oxopyrrolidin-3-yl)amino)isoindoline-2-carbonyl)benzonitrile]"
22,0.1 to 1,"CN1CC[C@@H](Oc2ccc3c(c2)CN(C(=O)c2c(O)cc(C(F)F)cc2OCc2ccccc2)CC3)C1 [Example 4.67, (R)-(2-(Benzyloxy)-4-(difluoromethyl)-6-hydroxyphenyl)(7-((1-methylpyrrolidin-3-yl)oxy)-3,4-dihydroisoquinolin-2(1H)-yl)methanone]"
23,1 to 10,"CN(C)CCOc1ccc2c(c1)CCN(C(=O)c1c(O)cc(F)cc1OCc1ccccc1)C2 [Example 10.24, (2-(Benzyloxy)-4-fluoro-6-hydroxyphenyl)(6-(2-(dimethylamino)ethoxy)-3,4-dihydroisoquinolin-2(1H)-yl)methanone]"
24,0.1 to 1,"COc1cc2c(c(N[C@H]3CCOC3)c1)CN(C(=O)c1c(O)cc(Cl)cc1OCc1ccccc1)C2 [Example 10.2, (S)-(2-(Benzyloxy)-4-chloro-6-hydroxyphenyl)(6-methoxy-4-((tetrahydrofuran-3-yl)amino)isoindolin-2-yl)methanone]"
